Values quoted from earlier work, collected in patent US11324772B2, “Periodontal gel composition and method of use” (PRUDENTIX LTD., priority 2017, dated 2022).

pH range in which octenidine is stable and maintains its antimicrobial activity (pH): 1.6-12.2 | temperature up to which it can be sterilized by steam in aqueous solutions (steam, aqueous solutions): up to 130 °C
SMILES: CCCCCCCCN=c1ccn(CCCCCCCCCCn2ccc(=NCCCCCCCC)cc2)cc1 [octenidine, 1,1′,4,4′-tetrahydro-N,N′-dioctyl-1,1′-decametylenedi-(4-pyridylideneamine)]
